Source: PubChem BioAssay (NCI)
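Five compound concentrations were applied to cells in 96-well plates for 48 hours; endpoints were derived by simple linear interpolation of the resulting dose-response curve. At the TGI there is no net growth.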

Assays:
Assay in all cases: DTP human tumour cell line panel, 48 h
786-0 renal = tested on: 786-0 renal
A498 renal = tested on: A498 renal
A549 NSCLC = tested on: A549 NSCLC
ACHN renal = tested on: ACHN renal
BT-549 breast = tested on: BT-549 breast
CAKI-1 renal = tested on: CAKI-1 renal
CCRF-CEM leukemia = tested on: CCRF-CEM leukemia
DU-145 prostate = tested on: DU-145 prostate
EKVX NSCLC = tested on: EKVX NSCLC
HCC-2998 colon = tested on: HCC-2998 colon
HCT-116 colon = tested on: HCT-116 colon
HCT-15 colon = tested on: HCT-15 colon
HL-60(TB) leukemia = tested on: HL-60(TB) leukemia
HOP-62 NSCLC = tested on: HOP-62 NSCLC
HOP-92 NSCLC = tested on: HOP-92 NSCLC
HS 578T breast = tested on: HS 578T breast
HT29 colon = tested on: HT29 colon
IGROV1 ovarian = tested on: IGROV1 ovarian
K-562 leukemia = tested on: K-562 leukemia
KM12 colon = tested on: KM12 colon
M14 melanoma = tested on: M14 melanoma
MALME-3M melanoma = tested on: MALME-3M melanoma
MCF7 breast = tested on: MCF7 breast
MDA-MB-231 breast = tested on: MDA-MB-231 breast
MDA-MB-435 = tested on: MDA-MB-435
MDA-N = tested on: MDA-N
MOLT-4 leukemia = tested on: MOLT-4 leukemia
NCI-H226 lung = tested on: NCI-H226 lung
NCI-H23 lung = tested on: NCI-H23 lung
NCI-H460 lung = tested on: NCI-H460 lung
NCI-H522 lung = tested on: NCI-H522 lung
OVCAR-3 ovarian = tested on: OVCAR-3 ovarian
OVCAR-4 ovarian = tested on: OVCAR-4 ovarian
OVCAR-5 ovarian = tested on: OVCAR-5 ovarian
OVCAR-8 ovarian = tested on: OVCAR-8 ovarian
PC-3 prostate = tested on: PC-3 prostate
RPMI-8226 leukemia = tested on: RPMI-8226 leukemia
RXF 393 renal = tested on: RXF 393 renal
SF-268 CNS = tested on: SF-268 CNS
SF-295 CNS = tested on: SF-295 CNS
SF-539 CNS = tested on: SF-539 CNS
SK-MEL-2 melanoma = tested on: SK-MEL-2 melanoma
SK-MEL-28 melanoma = tested on: SK-MEL-28 melanoma
SK-MEL-5 melanoma = tested on: SK-MEL-5 melanoma
SN12C renal = tested on: SN12C renal
SNB-19 CNS = tested on: SNB-19 CNS
SNB-75 CNS = tested on: SNB-75 CNS
SR leukemia = tested on: SR leukemia
SW-620 colon = tested on: SW-620 colon
T-47D breast = tested on: T-47D breast
TK-10 renal = tested on: TK-10 renal
U251 CNS = tested on: U251 CNS
UACC-257 melanoma = tested on: UACC-257 melanoma
UACC-62 melanoma = tested on: UACC-62 melanoma
UO-31 renal = tested on: UO-31 renal
COLO 205 colon = tested on: COLO 205 colon
LOX IMVI melanoma = tested on: LOX IMVI melanoma
NCI/ADR-RES ovarian = tested on: NCI/ADR-RES ovarian
SK-OV-3 ovarian = tested on: SK-OV-3 ovarian

`COc1ccccc1/C=C/c1c(N)ncnc1Nc1cccc(Cl)c1` was tested, and the TGI (786-0 renal) was 26.6 µM, the TGI (A498 renal) was 30.9 µM and the TGI (A549 NSCLC) was 41.6 µM. It also gave a TGI (ACHN renal) of 26 µM, a TGI (BT-549 breast) of 35.7 µM and a TGI (CAKI-1 renal) of 58.9 µM. For the same compound, the TGI (CCRF-CEM leukemia) was 1.12 µM, the TGI (DU-145 prostate) was > 100 µM and the TGI (EKVX NSCLC) was > 100 µM. The TGI (HCC-2998 colon) was > 100 µM, the TGI (HCT-116 colon) was 86.8 µM and the TGI (HCT-15 colon) was 52.5 µM. It also gave a TGI (HL-60(TB) leukemia) of 0.969 µM, a TGI (HOP-62 NSCLC) of 40 µM and a TGI (HOP-92 NSCLC) of 0.588 µM. It also gave a TGI (HS 578T breast) of 44 µM, a TGI (HT29 colon) of 87.2 µM and a TGI (IGROV1 ovarian) of 27.7 µM. The TGI (K-562 leukemia) was > 100 µM, the TGI (KM12 colon) was > 100 µM and the TGI (M14 melanoma) was 51.8 µM. For the same compound, the TGI (MALME-3M melanoma) was 59.7 µM, the TGI (MCF7 breast) was > 100 µM and the TGI (MDA-MB-231 breast) was 42.5 µM. The TGI (MDA-MB-435) was 33.1 µM, the TGI (MDA-N) was 55.8 µM and the TGI (MOLT-4 leukemia) was > 100 µM. For the same compound, the TGI (NCI-H226 lung) was 49 µM, the TGI (NCI-H23 lung) was 47 µM and the TGI (NCI-H460 lung) was 57.1 µM. The TGI (NCI-H522 lung) was 30.5 µM, the TGI (OVCAR-3 ovarian) was 59.5 µM and the TGI (OVCAR-4 ovarian) was 34.4 µM. For the same compound, the TGI (OVCAR-5 ovarian) was > 100 µM, the TGI (OVCAR-8 ovarian) was > 100 µM and the TGI (PC-3 prostate) was 0.97 µM. For the same compound, the TGI (RPMI-8226 leukemia) was 31.2 µM, the TGI (RXF 393 renal) was 38.4 µM and the TGI (SF-268 CNS) was 38.8 µM. The TGI (SF-295 CNS) was 65 µM, the TGI (SF-539 CNS) was 35.6 µM and the TGI (SK-MEL-2 melanoma) was 36.5 µM. For the same compound, the TGI (SK-MEL-28 melanoma) was 36.4 µM, the TGI (SK-MEL-5 melanoma) was 43.4 µM and the TGI (SN12C renal) was 30.9 µM. The TGI (SNB-19 CNS) was 47.1 µM, the TGI (SNB-75 CNS) was 23.6 µM and the TGI (SR leukemia) was > 100 µM. For the same compound, the TGI (SW-620 colon) was > 100 µM, the TGI (T-47D breast) was > 100 µM and the TGI (TK-10 renal) was 44.1 µM. The TGI (U251 CNS) was 34.4 µM, the TGI (UACC-257 melanoma) was 35 µM and the TGI (UACC-62 melanoma) was 33.3 µM. For the same compound, the TGI (UO-31 renal) was 57.1 µM.
In the case of `O=C1/C(=C/c2ccc(Cl)cc2)N=C(c2ccccc2)N1c1nc2c(Cl)cc(Cl)cc2s1`, the TGI (786-0 renal) is reported as > 100 µM, the TGI (A498 renal) is reported as 50.2 µM and the TGI (A549 NSCLC) is reported as 68.7 µM. For the same compound, the TGI (ACHN renal) was > 100 µM, the TGI (BT-549 breast) was 82.9 µM and the TGI (CAKI-1 renal) was > 100 µM. For the same compound, the TGI (CCRF-CEM leukemia) was 20.7 µM, the TGI (COLO 205 colon) was > 100 µM and the TGI (DU-145 prostate) was > 100 µM. The TGI (EKVX NSCLC) was 68.9 µM, the TGI (HCC-2998 colon) was > 100 µM and the TGI (HCT-116 colon) was 50.8 µM. For the same compound, the TGI (HCT-15 colon) was > 100 µM, the TGI (HL-60(TB) leukemia) was 43.1 µM and the TGI (HOP-62 NSCLC) was > 100 µM. The TGI (HOP-92 NSCLC) was 71.6 µM, the TGI (HS 578T breast) was 90.1 µM and the TGI (HT29 colon) was 55.7 µM. For the same compound, the TGI (IGROV1 ovarian) was > 100 µM, the TGI (K-562 leukemia) was > 100 µM and the TGI (KM12 colon) was > 100 µM. The TGI (LOX IMVI melanoma) was 53.4 µM, the TGI (M14 melanoma) was > 100 µM and the TGI (MCF7 breast) was > 100 µM. It also gave a TGI (MDA-MB-231 breast) of 92.3 µM, a TGI (MDA-MB-435) of 86.2 µM and a TGI (MDA-N) of 39.2 µM. The TGI (MOLT-4 leukemia) was 24.7 µM, the TGI (NCI-H460 lung) was > 100 µM and the TGI (NCI/ADR-RES ovarian) was 81.3 µM. For the same compound, the TGI (OVCAR-3 ovarian) was 50.9 µM, the TGI (OVCAR-4 ovarian) was > 100 µM and the TGI (OVCAR-5 ovarian) was > 100 µM. The TGI (OVCAR-8 ovarian) was > 100 µM, the TGI (PC-3 prostate) was 45.9 µM and the TGI (RPMI-8226 leukemia) was > 100 µM. The TGI (RXF 393 renal) was 62 µM, the TGI (SF-268 CNS) was > 100 µM and the TGI (SF-295 CNS) was > 100 µM. The TGI (SF-539 CNS) was 46.1 µM, the TGI (SK-MEL-2 melanoma) was 55.5 µM and the TGI (SK-MEL-28 melanoma) was > 100 µM. The TGI (SK-MEL-5 melanoma) was 57.9 µM, the TGI (SK-OV-3 ovarian) was > 100 µM and the TGI (SN12C renal) was 57.8 µM. The TGI (SNB-19 CNS) was > 100 µM, the TGI (SNB-75 CNS) was 64.9 µM and the TGI (SR leukemia) was 42.5 µM. The TGI (SW-620 colon) was > 100 µM, the TGI (T-47D breast) was 70.2 µM and the TGI (TK-10 renal) was > 100 µM. The TGI (U251 CNS) was 50.9 µM, the TGI (UACC-257 melanoma) was > 100 µM and the TGI (UACC-62 melanoma) was > 100 µM. The TGI (UO-31 renal) was 79.8 µM.
